{
  "source": "paper PMC12780224",
  "about": "(Nature Communications, 2025)",
  "molecules": {"B1": {"name": "AmSqgH (Alteromonas macleodii ATCC 27126) (protein)", "chain": "MSNAFCVNEPEWNDIKAADITEQPFLSDDKTLIVPTQYGELSLSISQFGLRIQSNVNAADDFGMLTQAPERLSLVLSGDQSHSTLAAGDYRLEVFAAPLHFKLYKNDVLVQQSATDGHFVRQHRLPPFAKTDKGWLLSLELSYDEAVYGLGEKWGKLDKRGQLIRSYNHDALGVNAEKSYKNTPYAWSPEGWNLFVHTPAPVTHGVGYALWSQRAYVCLVEDNVLDMFLFHQDSPAKCLQTYSELTGFAPTPPTWSLGVILSKAYYKDADELLAVAREVREKNMPCDVITLDGRAWQDTDTRFAFEWDPKRYADPQPVIDELKALGFKICVWEYPMISVKNPLYKKAADKGWLIKDKRTGEAYRYEWDLSPFGEVLTPLPDSGILDFTHPEAYEFWKTSHKPLFDLGIDMIKADFGEQLEDDNMLSYSGDSGNRLHNVYSMLYNRCVYEAADAYCKTGPFLFSRSAWTGSQRYPSQWGGDPQADWHGLAASIRGSLSWGMSGGPFFATDIGGFYKDTRDAELYVRWAQASVFSAHMRLHGIGPREPWSYGDAASNAVFEALKLRYKLIPYLKETAEKASQTGLPVQRAMALAFPEQPLSHGFEQQFMCGDDLLVVPCVVPGGKIKYYLPKGKWIRFGTEEVVQGEQYREEILALNDVAVFIQKGSRIVMGPDVQHTDMDMSNTTHWPA"}},
  "key": {"RdSqgA": {"target": "T1, RdSqgA (Roseobacter denitrificans, UniProt Q167F5)", "T1 sequence (Q167F5 1-366)": "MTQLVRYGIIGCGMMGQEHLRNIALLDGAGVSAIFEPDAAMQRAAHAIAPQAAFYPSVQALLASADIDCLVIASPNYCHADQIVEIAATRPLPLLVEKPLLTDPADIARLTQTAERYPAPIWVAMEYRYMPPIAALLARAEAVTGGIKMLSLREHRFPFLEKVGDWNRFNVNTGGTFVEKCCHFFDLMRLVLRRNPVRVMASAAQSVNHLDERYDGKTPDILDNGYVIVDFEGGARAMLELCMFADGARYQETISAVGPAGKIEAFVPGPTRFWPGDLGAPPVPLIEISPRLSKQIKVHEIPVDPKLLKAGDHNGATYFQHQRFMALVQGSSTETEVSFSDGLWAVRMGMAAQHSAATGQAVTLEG", "assay": "LC-MS of SQ formation", "type": "biochemical", "details": "200 mM NH4HCO3 pH 7.0, room temperature overnight"}, "PpSqgA": {"target": "T2, PpSqgA (Porphyridium purpureum, UniProt A0A5J4YS60)", "T2 sequence (A0A5J4YS60 1-369)": "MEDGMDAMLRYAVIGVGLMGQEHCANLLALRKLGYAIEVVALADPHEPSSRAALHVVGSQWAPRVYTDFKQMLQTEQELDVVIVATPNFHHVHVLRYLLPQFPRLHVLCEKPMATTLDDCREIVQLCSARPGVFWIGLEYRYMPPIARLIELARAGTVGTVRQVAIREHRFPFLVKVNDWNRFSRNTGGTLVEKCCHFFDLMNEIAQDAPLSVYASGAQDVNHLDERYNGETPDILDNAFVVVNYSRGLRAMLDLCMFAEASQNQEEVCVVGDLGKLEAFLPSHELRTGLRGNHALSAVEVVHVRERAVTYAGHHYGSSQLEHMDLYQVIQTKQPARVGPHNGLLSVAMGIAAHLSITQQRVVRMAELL", "assay": "sulfoquinovosidase activity assay", "type": "biochemical", "details": "details only in supplement"}, "CtSqgA": {"target": "T3, CtSqgA (Chaetoceros tenuissimus, UniProt A0AAD3HCU0)", "T3 sequence (A0AAD3HCU0 1-457)": "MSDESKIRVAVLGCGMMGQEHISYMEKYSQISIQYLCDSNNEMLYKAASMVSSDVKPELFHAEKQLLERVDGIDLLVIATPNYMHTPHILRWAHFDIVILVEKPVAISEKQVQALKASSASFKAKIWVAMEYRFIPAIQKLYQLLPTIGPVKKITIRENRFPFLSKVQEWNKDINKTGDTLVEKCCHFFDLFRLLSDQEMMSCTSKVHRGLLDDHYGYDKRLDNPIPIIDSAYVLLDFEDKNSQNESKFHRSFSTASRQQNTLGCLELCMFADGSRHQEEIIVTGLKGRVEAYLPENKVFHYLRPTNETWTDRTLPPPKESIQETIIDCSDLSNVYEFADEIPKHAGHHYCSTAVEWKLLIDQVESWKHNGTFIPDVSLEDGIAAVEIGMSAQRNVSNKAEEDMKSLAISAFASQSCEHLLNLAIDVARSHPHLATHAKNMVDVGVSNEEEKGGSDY", "assay": "sulfoquinovosidase activity assay", "type": "biochemical", "details": "details only in supplement"}, "purified protein": {"substrate": "O=[N+]([O-])c1ccc(O[C@H]2O[C@H](CS(=O)(=O)O)[C@@H](O)[C@H](O)[C@H]2O)cc1", "assay": "purified protein", "details": "10 mM phosphate buffer pH 7.5 (general assay buffer)"}},
  "data": [
    {"molecule": "NC(=O)c1ccc[n+]([C@@H]2O[C@H](COP(=O)(O)OP(=O)(O)OC[C@H]3O[C@@H](n4cnc5c(N)ncnc54)[C@H](O)[C@@H]3O)[C@@H](O)[C@H]2O)c1", "note": "[NAD^+]", "values": [
      {"measurement": "LC-MS of SQ formation", "setting": "RdSqgA; 20 uM SQGro", "value": "RdSqgA, revealed it to be an NAD^+-dependent sulfoquinovosidase"}
    ]},
    {"molecule": "O=S(=O)(O)C[C@H]1O[C@H](OC[C@H](O)CO)[C@H](O)[C@@H](O)[C@@H]1O", "note": "[SQGro]", "values": [
      {"measurement": "sulfoquinovosidase activity assay (SQ release)", "setting": "PpSqgA", "value": "These homologs have sulfoquinovosidase activity, allowing the liberation of SQ"},
      {"measurement": "sulfoquinovosidase activity assay (SQ release)", "setting": "CtSqgA", "value": "These homologs have sulfoquinovosidase activity, allowing the liberation of SQ"},
      {"measurement": "LC-MS of SQ formation", "setting": "RdSqgA; 10 mM NAD+", "value": "NAD^+-dependent sulfoquinovosidase that acts on SQGro to form SQ"}
    ]},
    {"molecule": "B1", "values": [
      {"measurement": "Km", "setting": "purified protein", "value": "13.0 ± 2.2", "unit": "mM"},
      {"measurement": "kcat", "setting": "purified protein", "value": "119 ± 19", "unit": "s⁻¹"}
    ]}
  ]
}
